Data on one substance can be found in patent US20080299062A1, “Use of Oxocarboxylic Acids-Containing Combinations for Deodorization” (priority 2004, published 2008).

A short description of experiment [1]: Various odor tests carried out on permanently waved hair (general statements). Conditions: sulfur odor of permanently waved hair; general statement.
Experiment [2] in a line: Odor of permanently waved hair strands, leave-on method (base: conditioner). On the procedure:
The test substances were tested on hair that had been freshly permanently waved. To this end, hair braids were cut into 2.5-cm pieces, bleached for 30 minutes and washed with perfume-free shampoo. To obtain fully odorless strands, the strands were then dipped three times into a mixture of isopropanol 25%/ethanol 25%/water 50%. The hair was kept for 24 hours in a conditioning room (20° C. at 85% relative humidity) and then cut to a weight of 2 g. This was followed by an odor test. Ten strands per post-treatment agent to be tested were wound onto rollers (diameter: 13 mm) and kept overnight in the conditioning room (20° C. at 85% relative humidity). The next morning, these strands were subjected to permanent waving.
Ten rollers holding 2 g of hair each were placed in a crystallizing dish and covered twice with 20 g of a commercial wave lotion, the rollers being turned over after the first 20 g to ensure uniform distribution. The rollers were then placed in a drier at 40° C. for 15 min, after which they were rinsed with water for 5 minutes namely for 2 min under running city water and for an additional 3 min by immersing them in water. The hair was then dabbed dry with a paper napkin. Afterward, the fixation was carried out with the aid of a commercial foam fixative. To this end, the rollers were immersed for 3 min in 500 mL of fixing solution. Excess fixing solution was then poured off, and the rollers were allowed to stand for an additional 7 minutes. They were then again rinsed with water for 5 min (see above) and dabbed dry with a paper napkin. Finally, the hair was detached from the roller and placed in a drier at 40° C. for 60 minutes.
To test the efficacy of the compounds as permanent wave post-treatment agents, the zinc salts and the corresponding zinc-free acids alone were incorporated at two different pH values into common cosmetic product bases. Zinc citrate (trizinc dicitrate) made soluble with a slight excess of citric acid was tested as the reference substance for a zinc salt without the odor-influencing counterion. The oxocarboxylic acids were used both as the sodium salts and in the form of their zinc salts. The pH values were then adjusted with citric acid or NaOH.
In the following example, 0.5 mL of a leave-on conditioner was massaged into the freshly permanently waved hair (2 g in each case), and after a contact time of 10 min the odor was evaluated by five test subjects (Table 1). In each case, the odor evaluation was performed on 3 test strands. The average values of the evaluation results are tabulated.
Each symbol stands for one test strand. • ◯=odor indistinguishable from that of blank • +=odor better than that of blank • ++=odor appreciably better than that of blank/odorless

The nature of experiment [3]: Odor of permanently waved hair strands, rinse-off method (base: hair-cure agent).

Take zinc levulinate [Zn levulinate]: the “odor-reducing effect on permanently waved hair, in words” value in experiment [1] is “much more intense than that of any other zinc compound”. The “odor-reducing action (efficacy), in words” value in experiment [2] (pH 2-3 and pH 4-5, summary of Table 1) is given as “unique in the entire pH range tested”. The “Odor rating vs blank, Day 1, pH 2-3” value in experiment [2] (test substance 0.01 wt. %, Day 1, wet, pH 2-3, each symbol = one test strand) was “+ + +”; in experiment [3] (rinse-off hair-cure agent, 5-min contact, table head 0.01 wt. % (text b103: 0.1 wt. %), Day 1, wet, pH 2-3, each symbol = one test strand) it was “+ + +”. Moreover, the “Odor rating vs blank, Day 1, pH 4-5” value in experiment [2] (test substance 0.01 wt. %, Day 1, wet, pH 4-5, each symbol = one test strand) is “++ ++ and ++”; in experiment [3] (rinse-off hair-cure agent, 5-min contact, table head 0.01 wt. % (text b103: 0.1 wt. %), Day 1, wet, pH 4-5, each symbol = one test strand) it was “++ ++ and ++”. Moreover, the “Odor rating vs blank, Day 2, pH 2-3” value is listed as “+ + +” in experiment [2] (test substance 0.01 wt. %, Day 2, dry, pH 2-3, each symbol = one test strand) and “+ + +” in experiment [3] (rinse-off hair-cure agent, 5-min contact, table head 0.01 wt. % (text b103: 0.1 wt. %), Day 2, dry, pH 2-3, each symbol = one test strand). The “Odor rating vs blank, Day 2, pH 4-5” value in experiment [2] (test substance 0.01 wt. %, Day 2, dry, pH 4-5, each symbol = one test strand) is given as “+ + ++”; in experiment [3] (rinse-off hair-cure agent, 5-min contact, table head 0.01 wt. % (text b103: 0.1 wt. %), Day 2, dry, pH 4-5, each symbol = one test strand), “+ + +”. Further, the “Odor rating vs blank, Day 3, pH 2-3” value is “+ + +” in experiment [2] (test substance 0.01 wt. %, Day 3, wet, pH 2-3, each symbol = one test strand) and “+ + +” in experiment [3] (rinse-off hair-cure agent, 5-min contact, table head 0.01 wt. % (text b103: 0.1 wt. %), Day 3, wet, pH 2-3, each symbol = one test strand). Moreover, the “Odor rating vs blank, Day 3, pH 4-5” value in experiment [2] (test substance 0.01 wt. %, Day 3, wet, pH 4-5, each symbol = one test strand) was “++ ++ and ++”; in experiment [3] (rinse-off hair-cure agent, 5-min contact, table head 0.01 wt. % (text b103: 0.1 wt. %), Day 3, wet, pH 4-5, each symbol = one test strand), “+ + +”. The “Odor rating vs blank, Day 4, pH 2-3” value was “+ + +” in experiment [2] (test substance 0.01 wt. %, Day 4, dry, pH 2-3, each symbol = one test strand) and “+ + +” in experiment [3] (rinse-off hair-cure agent, 5-min contact, table head 0.01 wt. % (text b103: 0.1 wt. %), Day 4, dry, pH 2-3, each symbol = one test strand). For the same substance, the “Odor rating vs blank, Day 4, pH 4-5” value in experiment [2] (test substance 0.01 wt. %, Day 4, dry, pH 4-5, each symbol = one test strand) was “+ ++ and ++”; in experiment [3] (rinse-off hair-cure agent, 5-min contact, table head 0.01 wt. % (text b103: 0.1 wt. %), Day 4, dry, pH 4-5, each symbol = one test strand), “++ + ++”. In addition, the “odor-reducing effect, in words” value in experiment [3] (lowest concentrations in rinse-off products, applied immediately after permanent wave treatment or up to four days later) is “drastic odor-reducing effect”.
